pIC50: −log10 of the molar value. “And” between values parts separate entries of the source, which are not always exact repeats. Equal entries are not always repeated.
How the values were obtained:
Test in all cases: Kir family selectivity thallium flux assay
Type in all cases: cell-based
Kir2.2 = biological target: T1, Kir2.2 (Homo sapiens, UniProt Q14500)
T1 construct: expressed in transfected cells
T1 sequence (Q14500 1-433): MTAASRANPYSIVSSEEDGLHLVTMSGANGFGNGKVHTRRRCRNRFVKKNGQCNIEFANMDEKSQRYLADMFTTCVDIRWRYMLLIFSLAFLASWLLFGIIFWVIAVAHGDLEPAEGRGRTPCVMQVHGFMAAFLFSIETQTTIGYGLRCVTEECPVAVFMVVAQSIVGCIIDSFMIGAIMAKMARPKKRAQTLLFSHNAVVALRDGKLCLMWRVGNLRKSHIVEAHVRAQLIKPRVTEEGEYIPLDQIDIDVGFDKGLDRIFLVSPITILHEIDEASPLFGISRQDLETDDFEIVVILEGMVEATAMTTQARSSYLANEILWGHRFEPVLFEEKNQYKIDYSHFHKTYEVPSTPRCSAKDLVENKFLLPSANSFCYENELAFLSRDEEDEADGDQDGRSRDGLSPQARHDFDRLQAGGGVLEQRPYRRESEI
Protocol: (§1) Thallium flux assays were conducted using the established methods. Stably transfected T-REx-HEK-293 cells expressing Kir6.2/SUR1 or Kir6.1/SUR2B were cultured overnight in polyamine-coated plates (black-walled, clear-bottomed; BD, Bedford, MA) at a density of 20,000 cells in 20 µl per well of cell culture media. The expression of Kir6.2/SUR1 or Kir6.1/SUR2B channels was induced by treating cells with 1 µg/ml tetracycline overnight. The following day, cells were rinsed with an assay buffer (Hanks’ Balanced Salt Solution supplied with 20 mM HEPES), loaded with the thallium-sensor dye Brilliant Thallos-AM AM (Ion Bioscience, San Marcos, TX) for 1 h, and then washed again with assay buffer to remove unincorporated dye. The cell plate was subsequently placed in a Panoptic Kinetic Imaging Plate Reader (Wavefront Bioscience, Franklin, TN) and imaged at a frequency of 1 Hz using 482/35 nm (excitation) and 536/40 nm (emission) filter sets. Kir6.1/SUR2B channels were activated with 10 µM pinacidil, whereas Kir6.1/SUR1 was activated with 30 µM VU0071063 [34]. To activate KATP channels independent of activators with ATP-depletion method, cells were treated with a cocktail of metabolic inhibitors (2.5 mM sodium cyanide and 20 mM 2-deoxy glucose) for 25 min before imagine. Control and test compounds diluted freshly from DMSO stocks into assay buffer were added to wells for four minutes before adding 0.5 mM chloride-free thallium stimulus buffer (Ion Bioscience) to initiate thallium flux through the expressed KATP channels. Thallium flux was recorded from all 384-wells for 2 min before terminating the experiment. […] Selectivity assays against other Kir channels were performed as described previously.
(§2) To begin elucidating the binding site location of VU0212387, VU0543336, VU0605768, and VU0544086, we evaluated the activity of the inhibitors against KATP channels composed of different Kir and SUR subunit combinations expressed in HEK293 cells. Specifically, the compounds were tested against Kir6.1/SUR1, Kir6.2/SUR1, Kir6.1/SUR2A, Kir6.2/SUR2A, Kir6.1/SUR2B, and Kir6.2/SUR2B at a dose of 3 µM. […] We expanded the selectivity analysis to include 10 other members of the Kir channel family.

Kir4.1/5.1 = biological target: T2, Kir4.1/5.1 (Homo sapiens, UniProt P78508+Q9NPI9)
T2 construct: expressed in transfected cells
T2 sequence (P78508 1-379): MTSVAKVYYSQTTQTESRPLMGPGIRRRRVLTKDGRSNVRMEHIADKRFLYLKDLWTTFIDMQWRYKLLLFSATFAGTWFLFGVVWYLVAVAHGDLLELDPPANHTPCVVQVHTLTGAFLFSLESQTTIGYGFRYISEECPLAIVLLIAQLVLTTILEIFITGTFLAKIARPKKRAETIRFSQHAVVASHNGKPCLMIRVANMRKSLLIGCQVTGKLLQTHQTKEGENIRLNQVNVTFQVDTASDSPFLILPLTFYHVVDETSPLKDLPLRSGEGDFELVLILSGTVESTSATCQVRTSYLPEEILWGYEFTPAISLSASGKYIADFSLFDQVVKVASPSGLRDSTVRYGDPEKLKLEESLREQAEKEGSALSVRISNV
T2 sequence (Q9NPI9 1-418): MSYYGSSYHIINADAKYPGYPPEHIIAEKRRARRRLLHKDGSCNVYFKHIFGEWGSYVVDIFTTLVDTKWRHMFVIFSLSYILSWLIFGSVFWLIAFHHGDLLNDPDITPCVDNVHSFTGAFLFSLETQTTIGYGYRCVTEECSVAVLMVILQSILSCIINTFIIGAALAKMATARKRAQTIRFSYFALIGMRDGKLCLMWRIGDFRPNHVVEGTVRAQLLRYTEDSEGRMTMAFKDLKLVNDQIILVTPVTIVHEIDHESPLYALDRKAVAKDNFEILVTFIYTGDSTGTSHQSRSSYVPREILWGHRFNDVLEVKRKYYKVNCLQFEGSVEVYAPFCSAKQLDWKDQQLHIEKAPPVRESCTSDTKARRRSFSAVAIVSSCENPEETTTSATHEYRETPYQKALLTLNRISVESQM
Protocol: as §1, §2

Kir4.2 = biological target: T3, Kir4.2 (Homo sapiens, UniProt Q99712); conditions: for inhibition at 30 µM: observed at 30 µM, read-out: Percent maximal inhibition of Kir4.2; for pIC50: thallium flux
T3 construct: expressed in transfected cells
T3 sequence (Q99712 1-375): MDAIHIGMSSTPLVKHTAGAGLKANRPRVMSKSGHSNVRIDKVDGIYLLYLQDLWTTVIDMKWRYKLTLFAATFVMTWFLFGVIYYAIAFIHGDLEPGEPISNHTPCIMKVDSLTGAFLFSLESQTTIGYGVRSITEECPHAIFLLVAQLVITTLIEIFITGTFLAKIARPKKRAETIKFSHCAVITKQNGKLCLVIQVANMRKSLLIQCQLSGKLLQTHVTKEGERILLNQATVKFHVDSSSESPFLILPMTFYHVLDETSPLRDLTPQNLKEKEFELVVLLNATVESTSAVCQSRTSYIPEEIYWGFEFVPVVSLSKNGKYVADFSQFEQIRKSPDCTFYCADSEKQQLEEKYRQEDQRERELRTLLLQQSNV
Protocol: as §1, §2

Kir1.1 = biological target: T4, Kir1.1 (Homo sapiens, UniProt P48048)
T4 construct: expressed in transfected cells
T4 sequence (P48048 1-391): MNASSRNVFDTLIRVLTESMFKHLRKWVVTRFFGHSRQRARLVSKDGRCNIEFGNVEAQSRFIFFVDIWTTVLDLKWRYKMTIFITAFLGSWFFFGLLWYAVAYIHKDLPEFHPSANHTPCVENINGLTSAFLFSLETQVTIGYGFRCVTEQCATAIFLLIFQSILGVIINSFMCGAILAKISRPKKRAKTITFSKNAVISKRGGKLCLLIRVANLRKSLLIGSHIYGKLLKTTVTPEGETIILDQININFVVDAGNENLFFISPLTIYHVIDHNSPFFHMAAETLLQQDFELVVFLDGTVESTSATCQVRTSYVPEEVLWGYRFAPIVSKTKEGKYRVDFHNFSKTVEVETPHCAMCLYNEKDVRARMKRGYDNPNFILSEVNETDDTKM
Protocol: as §1, §2

| Compound | pIC50 (Kir2.2) | pIC50 (Kir4.1/5.1) | inhibition at 30 µM (Kir4.2) [%] | pIC50 (Kir4.2) | pIC50 (Kir1.1) |
| --- | --- | --- | --- | --- | --- |
| c1ccc2[nH]c(CSc3ncnc4c3oc3ccccc34)nc2c1 [VU0212387, 4-(((1 H-benzo[d]imidazol-2-yl)methyl)thio)benzofuro[3,2-d]pyrimidine] | < 4.52 | < 4.52 | 56 | 4.77 | < 4.52 |
| O=C(NCC(O)(c1ccccc1)C(F)(F)F)c1ccc(OC(F)(F)F)cc1 (stereo not drawn) [VU0543336, N-(3,3,3-trifluoro-2-hydroxy-2-phenylpropyl)-4-(trifluoromethoxy)benzamide] | < 4.52 | < 4.52 | 110 | 4.92 and 4.93 | < 4.52 |
| O=C(NCc1cc(-c2ccncc2)n(C2CCCC2)n1)Nc1cccs1 [VU0544086, 1-((1-cyclopentyl-5-(pyridin-4-yl)-1 H-pyrazol-3-yl)methyl)-3-(thiophen-2-yl)urea] | < 4.52 | < 4.52 | – | < 4.52 | < 4.52 |
| O=C1c2oc3ccccc3c(=O)c2C(c2cccc(Br)c2)N1CCO (stereo not drawn) [VU0605768, 1-(3-bromophenyl)-2-(2-hydroxyethyl)-1,2-dihydrochromeno[2,3-c]pyrrole-3,9-dione] | < 4.52 | < 4.52 | – | < 4.52 | < 4.52 |

Source: article PMC11418212, “Characterization of four structurally diverse inhibitors of SUR2-containing KATP channels” (Channels, 2024)
